According to US9533985B2, “Sulfonamide derivative and medicinal use thereof” (EA Pharma Co., Ltd., priority 2012, dated 2017):

Target: α4β7 integrin (Homo sapiens (Human), UniProt P13612+P26010)
Assay: MAdCAM-1/α4β7 integrin binding inhibitory activity evaluation test in the presence of serum (2)
Format: cell-based
Conditions: RPMI-8866 cells binding to mouse MAdCAM-1/Fc, same manner as Test (3), read-out: α4β7 Rank of activity with serum added
Outline: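 Adhesion of human RPMI-8866 B cells (α4β7-expressing) to plate-bound recombinant mouse MAdCAM-1/Fc in DMEM binding buffer with 4 mM MnCl2 and 50% final human serum, 15–60 min at 30 °C. Bound cells quantified by LDH activity (A490) after lysis; IC50 relative to no-compound binding, duplicate.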

Chain of α4β7 integrin (P13612 34-1032): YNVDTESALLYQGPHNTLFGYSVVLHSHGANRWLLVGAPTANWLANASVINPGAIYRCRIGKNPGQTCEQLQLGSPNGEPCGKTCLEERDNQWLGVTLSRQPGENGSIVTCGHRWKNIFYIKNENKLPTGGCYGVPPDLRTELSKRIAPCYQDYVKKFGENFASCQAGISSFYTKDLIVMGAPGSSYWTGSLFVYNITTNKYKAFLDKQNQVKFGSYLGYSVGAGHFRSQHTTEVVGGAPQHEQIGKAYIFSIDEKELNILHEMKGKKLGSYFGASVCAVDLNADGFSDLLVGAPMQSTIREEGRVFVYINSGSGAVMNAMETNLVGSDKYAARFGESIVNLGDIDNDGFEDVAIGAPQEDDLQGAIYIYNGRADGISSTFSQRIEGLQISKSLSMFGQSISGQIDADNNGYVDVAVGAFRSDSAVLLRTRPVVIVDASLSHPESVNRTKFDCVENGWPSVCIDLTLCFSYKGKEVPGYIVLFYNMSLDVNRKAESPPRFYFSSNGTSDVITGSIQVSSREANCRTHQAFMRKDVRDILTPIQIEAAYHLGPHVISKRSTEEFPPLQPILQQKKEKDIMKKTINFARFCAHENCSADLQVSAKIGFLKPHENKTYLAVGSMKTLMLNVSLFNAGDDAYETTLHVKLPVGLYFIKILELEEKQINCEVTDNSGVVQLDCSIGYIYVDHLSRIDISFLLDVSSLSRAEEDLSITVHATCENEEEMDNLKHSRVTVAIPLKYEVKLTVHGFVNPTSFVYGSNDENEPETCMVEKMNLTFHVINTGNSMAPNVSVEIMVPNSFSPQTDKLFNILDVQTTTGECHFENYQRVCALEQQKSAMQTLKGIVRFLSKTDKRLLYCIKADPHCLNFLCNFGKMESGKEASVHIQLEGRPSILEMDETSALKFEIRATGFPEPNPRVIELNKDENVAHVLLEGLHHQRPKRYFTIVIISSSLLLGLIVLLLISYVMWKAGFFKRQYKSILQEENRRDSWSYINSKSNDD
Chain of α4β7 integrin (P26010 20-798): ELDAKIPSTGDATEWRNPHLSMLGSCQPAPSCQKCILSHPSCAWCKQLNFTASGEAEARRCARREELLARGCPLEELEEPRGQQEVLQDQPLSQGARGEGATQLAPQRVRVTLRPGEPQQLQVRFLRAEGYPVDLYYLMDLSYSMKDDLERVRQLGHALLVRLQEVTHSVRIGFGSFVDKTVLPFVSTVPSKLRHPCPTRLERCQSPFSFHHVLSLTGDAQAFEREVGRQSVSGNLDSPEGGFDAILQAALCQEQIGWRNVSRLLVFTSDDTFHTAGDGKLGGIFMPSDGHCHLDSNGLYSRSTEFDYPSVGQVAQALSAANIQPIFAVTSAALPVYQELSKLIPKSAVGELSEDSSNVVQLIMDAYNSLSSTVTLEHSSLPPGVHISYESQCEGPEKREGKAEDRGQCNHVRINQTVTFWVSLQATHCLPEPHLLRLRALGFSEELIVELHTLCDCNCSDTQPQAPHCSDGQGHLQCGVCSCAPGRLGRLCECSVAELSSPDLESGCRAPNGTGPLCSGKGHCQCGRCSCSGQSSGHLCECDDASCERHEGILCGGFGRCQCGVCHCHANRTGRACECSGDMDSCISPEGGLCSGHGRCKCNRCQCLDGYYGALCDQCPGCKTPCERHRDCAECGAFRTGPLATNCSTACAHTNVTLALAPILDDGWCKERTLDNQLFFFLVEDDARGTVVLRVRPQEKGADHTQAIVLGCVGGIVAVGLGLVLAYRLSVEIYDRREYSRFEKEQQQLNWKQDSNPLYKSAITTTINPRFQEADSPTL

Compound	IC50 [nM]
Cn1ccc(=O)n(-c2ccc(C[C@H](NC(=O)c3c(F)cc(NS(=O)(=O)c4ccc(C(=O)NC(C)(C)C)nc4)cc3F)C(=O)O)cc2)c1=O [Example 173, N-{4-[({6-[(tert-Butylamino)carbonyl]pyridin-3-yl}sulfonyl)amino]-2,6-difluorobenzoyl}-4-(3-methyl-2,6-dioxo-3,6-dihydropyrimidin-1(2H)-yl)-L-phenylalanine]	≤ 10
Cn1ccc(=O)n(-c2ccc(C[C@H](NC(=O)c3c(F)cc(NS(=O)(=O)c4ccc(C(=O)NC5CCCCC5)cc4)cc3F)C(=O)O)cc2)c1=O [Example 169, N-{4-[({4-[(Cyclohexylamino)carbonyl]phenyl}sulfonyl)amino]-2,6-difluorobenzoyl}-4-(3-methyl-2,6-dioxo-3,6-dihydropyrimidin-1(2H)-yl)-L-phenylalanine]	10 to 50
Cn1c(=O)n(-c2ccc(C[C@H](NC(=O)c3cc(F)c(NS(=O)(=O)c4ccc(-c5cncnc5)cn4)cc3F)C(=O)O)nc2)c(=O)c2ccncc21 [Example 220, N-(2,5-Difluoro-4-{[(5-pyrimidin-5-ylpyridin-2-yl)sulfonyl]amino}benzoyl)-3-[5-(1-methyl-2,4-dioxo-1,4-dihydropyrido[3,4-d]pyrimidin-3(2H)-yl)pyridin-2-yl]-L-alanine]	10 to 50
Cn1c(=O)n(-c2ccc(C[C@H](NC(=O)c3ncc(NS(=O)(=O)c4ccc(-c5ncccn5)cn4)cc3F)C(=O)O)cc2)c(=O)c2ccncc21 [Example 154, N-[(3-Fluoro-5-{[(5-pyrimidin-2-yl-pyridin-2-yl)sulfonyl]amino}pyridin-2-yl)carbonyl]-4-(1-methyl-2,4-dioxo-1,4-dihydropyrido[3,4-d]pyrimidin-3(2H)-yl)-L-phenylalanine]	10 to 50
Cn1c(=O)n(-c2ccc(C[C@H](NC(=O)c3cc(F)c(NS(=O)(=O)c4cccs4)cc3F)C(=O)O)cc2)c(=O)c2ccncc21 [Example 213, N-{2,5-Difluoro-4-[(2-thienylsulfonyl)amino]benzoyl}-4-(1-methyl-2,4-dioxo-1,4-dihydropyrido[3,4-d]pyrimidin-3(2H)-yl)-L-phenylalanine]	10 to 50
CCOc1ccccc1S(=O)(=O)Nc1cc(F)c(C(=O)N[C@@H](Cc2ccc(-n3c(=O)c4ccncc4n(C)c3=O)cn2)C(=O)O)c(F)c1 [Example 146, N-(4-{[(2-Ethoxyphenyl)sulfonyl]amino}-2,6-difluorobenzoyl)-3-[5-(1-methyl-2,4-dioxo-1,4-dihydropyrido[3,4-d]pyrimidin-3(2H)-yl)pyridin-2-yl]-L-alanine]	10 to 50
Cc1cc(-c2ccc(S(=O)(=O)Nc3cc(F)c(C(=O)N[C@@H](Cc4ccc(-n5c(=O)c6ccncc6n(C)c5=O)cn4)C(=O)O)cc3F)nc2)cc(C)n1 [Example 227, N-(4-{[(2′,6′-Dimethyl-3,4′-bipyridin-6-yl)sulfonyl]amino}-2,5-difluorobenzoyl)-3-[5-(1-methyl-2,4-dioxo-1,4-dihydropyrido[3,4-d]pyrimidin-3(2H)-yl)pyridin-2-yl]-L-alanine]	50 to 200
CCNC(=O)c1ccc(S(=O)(=O)Nc2cc(F)c(C(=O)N[C@@H](Cc3ccc(-n4c(=O)ccn(C)c4=O)cc3)C(=O)O)c(F)c2)cn1 [Example 164, N-{4-[({6-[(Ethylamino)carbonyl]pyridin-3-yl}sulfonyl)amino]-2,6-difluorobenzoyl}-4-(3-methyl-2,6-dioxo-3,6-dihydropyrimidin-1(2H)-yl)-L-phenylalanine]	10 to 50
Cn1c(=O)n(-c2ccc(C[C@H](NC(=O)c3cc(F)c(NS(=O)(=O)c4ccccn4)cc3F)C(=O)O)nc2)c(=O)c2ccncc21 [Example 138, N-{2,5-Difluoro-4-[(pyridin-2-yl-sulfonyl)amino]benzoyl}-3-[5-(1-methyl-2,4-dioxo-1,4-dihydropyrido[3,4-d]pyrimidin-3(2H)-yl)pyridin-2-yl]-L-alanine]	50 to 200
Cn1c(=O)n(-c2ccc(C[C@H](NC(=O)c3cc(F)c(NS(=O)(=O)c4ccco4)cc3F)C(=O)O)cc2)c(=O)c2ccncc21 [Example 149, N-{2,5-Difluoro-4-[(2-furylsulfonyl)amino]benzoyl}-4-(1-methyl-2,4-dioxo-1,4-dihydropyrido[3,4-d]pyrimidin-3(2H)-yl)-L-phenylalanine]	10 to 50
Cc1cc(CNC(C)(C)C)ccc1S(=O)(=O)Nc1ccc(C(=O)N[C@@H](Cc2ccc(-n3c(=O)c4ccncc4n(C)c3=O)cc2)C(=O)O)c(F)c1 [Example 180, N-{4-[({4-[(tert-Butylamino)methyl]-2-methylphenyl}sulfonyl)amino]-2-fluorobenzoyl}-4-(1-methyl-2,4-dioxo-1,4-dihydropyrido[3,4-d]pyrimidin-3(2H)-yl)-L-phenylalanine]	≤ 10
Cc1cn(-c2ccc(S(=O)(=O)Nc3cc(F)c(C(=O)N[C@@H](Cc4ccc(-n5c(=O)c6ccncc6n(C)c5=O)cn4)C(=O)O)cc3F)cc2)nn1 [Example 234, N-[2,5-Difluoro-4-({[4-(4-methyl-1H-1,2,3-triazol-1-yl)phenyl]sulfonyl}amino)benzoyl]-3-[5-(1-methyl-2,4-dioxo-1,4-dihydropyrido[3,4-d]pyrimidin-3(2H)-yl)pyridin-2-yl]-L-alanine]	10 to 50
COc1ccccc1S(=O)(=O)Nc1cc(F)c(C(=O)N[C@@H](Cc2ccc(-n3c(=O)c4ccncc4n(C)c3=O)cn2)C(=O)O)c(F)c1 [Example 145, N-(2,6-Difluoro-4-{[(2-methoxyphenyl)sulfonyl]amino}benzoyl)-3-[5-(1-methyl-2,4-dioxo-1,4-dihydropyrido[3,4-d]pyrimidin-3(2H)-yl)pyridin-2-yl]-L-alanine]	≤ 10
COc1cc2c(=O)n(-c3ccc(C[C@H](NC(=O)c4ccc(NS(=O)(=O)c5ccco5)cc4F)C(=O)O)cc3)c(=O)n(C)c2cn1 [Example 147, N-{2-Fluoro-4-[(2-furylsulfonyl)amino]benzoyl}-4-(6-methoxy-1-methyl-2,4-dioxo-1,4-dihydropyrido[3,4-d]pyrimidin-3(2H)-yl)-L-phenylalanine]	10 to 50
Cn1c(=O)n(-c2ccc(C[C@H](NC(=O)c3cc(F)c(NS(=O)(=O)c4ccc(-c5ncccn5)cn4)cc3F)C(=O)O)nc2)c(=O)c2ccncc21 [Example 222, N-(2,5-Difluoro-4-{[(5-pyrimidin-2-ylpyridin-2-yl)sulfonyl]amino}benzoyl)-3-[5-(1-methyl-2,4-dioxo-1,4-dihydropyrido[3,4-d]pyrimidin-3(2H)-yl)pyridin-2-yl]-L-alanine]	50 to 200
Cn1c(=O)n(-c2ccc(C[C@H](NC(=O)c3cc(F)c(NS(=O)(=O)c4ccc(-n5cncn5)cn4)cc3F)C(=O)O)nc2)c(=O)c2ccncc21 [Example 217, N-[2,5-Difluoro-4-({[5-(1H-1,2,4-triazol-1-yl)pyridin-2-yl]sulfonyl}amino)benzoyl]-3-[5-(1-methyl-2,4-dioxo-1,4-dihydropyrido[3,4-d]pyrimidin-3(2H)-yl)pyridin-2-yl]-L-alanine]	10 to 50
Cn1c(=O)n(-c2ccc(C[C@H](NC(=O)c3ncc(NS(=O)(=O)c4ccncc4)cc3F)C(=O)O)cc2)c(=O)c2ccncc21 [Example 184, N-({3-Fluoro-5-[(pyridin-4-yl-sulfonyl)amino]pyridin-2-yl}carbonyl)-4-(1-methyl-2,4-dioxo-1,4-dihydropyrido[3,4-d]pyrimidin-3(2H)-yl)-L-phenylalanine]	10 to 50
Cn1c(=O)n(-c2ccc(C[C@H](NC(=O)c3cc(F)c(NS(=O)(=O)c4ccc(-n5cncn5)cc4)cc3F)C(=O)O)cn2)c(=O)c2ccncc21 [Example 221, N-[2,5-Difluoro-4-({[4-(1H-1,2,4-triazol-1-yl)phenyl]sulfonyl}amino)benzoyl]-3-[6-(1-methyl-2,4-dioxo-1,4-dihydropyrido[3,4-d]pyrimidin-3(2H)-yl)pyridin-3-yl]-L-alanine]	10 to 50
CC(=O)c1ccc(S(=O)(=O)Nc2cc(F)c(C(=O)N[C@@H](Cc3ccc(-n4c(=O)c5ccncc5n(C)c4=O)cn3)C(=O)O)cc2F)cc1 [Example 141, N-(4-{[(4-Acetylphenyl)sulfonyl]amine}-2,5-difluorobenzoyl)-3-[5-(1-methyl-2,4-dioxo-1,4-dihydropyrido[3,4-d]pyrimidin-3(2H)-yl)pyridin-2-yl]-L-alanine]	10 to 50
Cn1ccc(=O)n(-c2ccc(C[C@H](NC(=O)c3c(F)cc(NS(=O)(=O)c4ccc(C(=O)C5CC5)cc4)cc3F)C(=O)O)cc2)c1=O [Example 174, N-[4-({[4-(Cyclopropylcarbonyl)phenyl]sulfonyl}amino)-2,6-difluorobenzoyl]-4-(3-methyl-2,6-dioxo-3,6-dihydropyrimidin-1(2H)-yl)-L-phenylalanine]	10 to 50
Cn1ccc(=O)n(-c2ccc(C[C@H](NC(=O)c3c(F)cc(NS(=O)(=O)c4ccc(C(=O)NC5CCCC5)cc4)cc3F)C(=O)O)cc2)c1=O [Example 165, N-{4-[({4-[(Cyclopentylamino)carbonyl]phenyl}sulfonyl)amino]-2,6-difluorobenzoyl}-4-(3-methyl-2,6-dioxo-3,6-dihydropyrimidin-1(2H)-yl)-L-phenylalanine]	≤ 10
Cn1c(=O)n(-c2ccc(C[C@H](NC(=O)c3ccc(NS(=O)(=O)c4cc[n+]([O-])cc4)cc3F)C(=O)O)cc2)c(=O)c2cc[n+]([O-])cc21 [Example 179, (2S)-2-[[2-Fluoro-4-[(1-oxidopyridin-1-ium-4-yl)sulfonylamino]benzoyl]amino]-3-[4-(1-methyl-7-oxido-2,4-dioxo-pyrido[3,4-d]pyrimidin-7-ium-3-yl)phenyl]propanoic Acid]	≤ 10
